These results are taken from ChEMBL document CHEMBL3872221, “Solvent-free synthesis of bacillamide analogues as novel cytotoxic and anti-inflammatory agents” (Eur J Med Chem, 2016).

Assay [1] can be described thus: Cytotoxicity against human MDA-MB-231 cells assessed as cell survival at 10 uM measured after 48 hrs by MTT assay relative to control. The assay is classed as functional. The note with it: MDA-MB-231, 48 h, read-out: Survival. (Formazan colour is commonly taken as a measure of viable cells.)
Assay [2] has as its system Rattus norvegicus. Description: Antiinflammatory activity in rat assessed as inhibition of carrageenan-induced hind paw oedema at 50 mg/Kg, po administered 30 mins before carrageenan challenge measured after 2 hrs relative to control. The format is functional. (In the carrageenan paw model, swelling and tenderness develop within hours.)
Assay [3] deals with Rattus norvegicus. Kind of assay: Antiinflammatory activity in rat assessed as inhibition of carrageenan-induced hind paw edema at 50 mg/Kg, po administered 30 mins before carrageenan challenge measured after 1 hr relative to control. The format is functional.
For assay [4], the system named is Rattus norvegicus. Description: Antiinflammatory activity in rat assessed as inhibition of carrageenan-induced hind paw oedema at 50 mg/Kg, po administered 30 mins before carrageenan challenge measured after 4 hrs relative to control. The format is functional.
A short description of assay [5]: Cytotoxicity against human HCT116 cells assessed as cell survival at 10 uM measured after 48 hrs by MTT assay relative to control. The format is functional. The note with it: HCT-116, 48 h, read-out: Survival.
Assay [6] is described as follows: Cytotoxicity against human Jurkat cells assessed as cell survival at 10 uM measured after 48 hrs by MTT assay relative to control. The format is functional. The note with it: read-out: Survival.
Assay [7] has as its system Rattus norvegicus. Description: Antiinflammatory activity in rat assessed as inhibition of carrageenan-induced hind paw oedema at 50 mg/Kg, po administered 30 mins before carrageenan challenge measured after 3 hrs relative to control. The format is functional.
Assay [8] is described as follows: Cytotoxicity against human HCT116 cells assessed as effect on cell viability measured after 48 hrs by MTT assay. The format is functional, cell-based. The note with it: HCT-116, 48 h.
A short description of assay [9]: Cytotoxicity against human Jurkat cells assessed as effect on cell viability measured after 48 hrs by MTT assay. The assay is classed as functional, cell-based.
The subject of a further assay is Jurkat. Description: Induction of apoptosis in human Jurkat cells assessed as activation of caspase 3/7 at 1 uM measured after 48 hrs by fluorescence assay relative to control. The format is functional.
The nature of assay [10]: Cytotoxicity against human MDA-MB-231 cells assessed as effect on cell viability measured after 48 hrs by MTT assay. The assay is classed as functional, cell-based. The note with it: MDA-MB-231, 48 h.

`O=C(NCCc1c[nH]c2ccccc12)c1csc(-c2ccc(Cl)cc2)n1`: the viability at 10 µM in [1] turned out to be 94.8%; in [5] it was 99.2%; in assay [6], 84.8%. Besides, the inhibition in vivo at 50 mg/kg was found to be 63% in the assay on Rattus norvegicus [2], 68% in the assay on Rattus norvegicus [3], 56% in the assay on Rattus norvegicus [4] and 62% with Rattus norvegicus [7].
For `Cc1ccc(-c2nc(C(=O)NCCc3c[nH]c4ccccc34)cs2)cc1`, the figures for the viability at 10 µM in assay [1], in [5] and in assay [6] were 87.3%, 108% and 88.3%, respectively. Moreover, the inhibition in vivo at 50 mg/kg with Rattus norvegicus [2] came to 77%; in the assay on Rattus norvegicus [3], 81%; in the assay on Rattus norvegicus [4] it was 70%; in the assay on Rattus norvegicus [7], 57%.
On to `Nc1nc(C(=O)NCCc2c[nH]c3ccccc23)cs1`, for which the viability at 10 µM in [1] turned out to be 24.8%; in [5] it was 20.3%; in assay [6], 42.3%. In addition, the results for the IC50 in assay [8], in assay [9] and in [10] were 5.4 µM, 3 µM and 3 µM, respectively. In the assay on Jurkat, the “fold change (FC)” value is listed as 4 - 5. Further, the inhibition in vivo at 50 mg/kg in the assay with Rattus norvegicus [2] came to 74%; in the assay on Rattus norvegicus [3], 86%; in the assay with Rattus norvegicus [4] it was 82%; in the assay on Rattus norvegicus [7] it was 54%.
As to `Cc1ccc(Nc2nc(C(=O)NCCc3c[nH]c4ccccc34)cs2)cc1`, the inhibition in vivo at 50 mg/kg came to 57% with Rattus norvegicus [2], 52% in the assay with Rattus norvegicus [3], 38% in the assay with Rattus norvegicus [4] and 46% in the assay with Rattus norvegicus [7].
On the same counts, the results for `O=C(NCCc1c[nH]c2ccccc12)c1csc(Nc2ccc(F)cc2)n1` are 60%, 83%, 42% and 59%.
Consider `O=C(NCCc1c[nH]c2ccccc12)c1csc(Nc2ccccc2)n1`, for which the viability at 10 µM in assay [1] was 20.1%; in [5], 10.3%; in assay [6], 40.1%. The IC50 in assay [8] stood at 0.1 µM; in assay [9], 0.5 µM; in assay [10], 0.6 µM. Further, the “fold change (FC)” value in the assay with Jurkat is listed as 4 - 5. Besides, the inhibition in vivo at 50 mg/kg in the assay with Rattus norvegicus [2] turned out to be 73%; in the assay on Rattus norvegicus [3], 77%; in the assay with Rattus norvegicus [4], 78%; in the assay on Rattus norvegicus [7] it was 65%.
As to `O=C(NCCc1c[nH]c2ccccc12)c1csc(-c2cccs2)n1`, the results for the viability at 10 µM in assay [1], in [5] and in [6] were 85.4%, 93.9% and 87.7%, respectively. For the same compound, the inhibition in vivo at 50 mg/kg in the assay with Rattus norvegicus [2] came to 76%; in the assay with Rattus norvegicus [3], 82%; in the assay on Rattus norvegicus [4] it was 62%; in the assay with Rattus norvegicus [7], 58%.
Regarding `O=C(NCCc1c[nH]c2ccccc12)c1csc(-c2ccco2)n1`, the viability at 10 µM in assay [1] came to 84.4%; in [5], 96.9%; in assay [6], 87.2%. In addition, the inhibition in vivo at 50 mg/kg in the assay with Rattus norvegicus [2] came out at 69%; with Rattus norvegicus [3] it was 75%; in the assay on Rattus norvegicus [4], 46%; in the assay on Rattus norvegicus [7] it was 49%.
For the compound `O=C(NCCc1c[nH]c2ccccc12)c1csc(Cc2ccccc2)n1`, the figures for the viability at 10 µM in assay [1], in assay [5] and in assay [6] were 89%, 101% and 87.3%, respectively. Further, the inhibition in vivo at 50 mg/kg in the assay with Rattus norvegicus [2] turned out to be 57%; with Rattus norvegicus [3], 76%; with Rattus norvegicus [4] it was 42%; with Rattus norvegicus [7] it was 45%.
In the case of `O=C(NCCc1c[nH]c2ccccc12)c1csc(-c2ccccc2)n1`, the results for the viability at 10 µM in assay [1], in [5] and in [6] were 88.3%, 97.6% and 87.3%, respectively. Moreover, the inhibition in vivo at 50 mg/kg in the assay on Rattus norvegicus [2] came out at 62%; in the assay with Rattus norvegicus [3], 55%; with Rattus norvegicus [4], 57%; in the assay with Rattus norvegicus [7] it was 25%.
On to `O=C(NCCc1c[nH]c2ccccc12)c1csc(Nc2ccc([N+](=O)[O-])cc2)n1`, for which the viability at 10 µM was found to be 92.3% in assay [1], 72.1% in assay [5] and 92.5% in [6]. Also, the inhibition in vivo at 50 mg/kg in the assay with Rattus norvegicus [2] was determined as 59%; in the assay with Rattus norvegicus [3], 66%; in the assay on Rattus norvegicus [4] it was 50%; in the assay on Rattus norvegicus [7], 57%.
With `O=C(NCCc1c[nH]c2ccccc12)c1csc(Nc2ccc(Cl)cc2)n1`, the inhibition in vivo at 50 mg/kg in the assay on Rattus norvegicus [2] turned out to be 59%; in the assay on Rattus norvegicus [3] it was 49%; in the assay with Rattus norvegicus [4] it was 41%; with Rattus norvegicus [7] it was 50%.
Turning to `Cc1nc(C(=O)NCCc2c[nH]c3ccccc23)cs1`, the viability at 10 µM in assay [1] amounted to 90.4%; in assay [5], 97%; in assay [6] it was 88.1%. Besides, the inhibition in vivo at 50 mg/kg amounted to 60% in the assay on Rattus norvegicus [2], 63% in the assay with Rattus norvegicus [3], 50% in the assay with Rattus norvegicus [4] and 44% in the assay on Rattus norvegicus [7].
As for `O=C(NCCc1c[nH]c2ccccc12)c1csc(Nc2ccc(Br)cc2)n1`, the viability at 10 µM in [1] turned out to be 41.5%; in [5], 55.3%; in [6], 85.5%. The inhibition in vivo at 50 mg/kg came out at 54% in the assay on Rattus norvegicus [2], 23% in the assay with Rattus norvegicus [3], 46% in the assay with Rattus norvegicus [4] and 49% in the assay with Rattus norvegicus [7].
For the compound `CC(=O)c1nc(C(=O)NCCc2c[nH]c3ccccc23)cs1` [BACILLAMIDE A], the viability at 10 µM in assay [1] stood at 105%; in [5] it was 81.1%; in assay [6], 85.1%. Moreover, the inhibition in vivo at 50 mg/kg in the assay with Rattus norvegicus [2] came to 56%; with Rattus norvegicus [3], 58%; in the assay on Rattus norvegicus [4] it was 42%; with Rattus norvegicus [7], 46%.
With `COc1cccc2c1C(=O)c1c(O)c3c(c(O)c1C2=O)C[C@@](O)(C(=O)CO)C[C@@H]3O[C@H]1C[C@H](N)[C@H](O)[C@H](C)O1` [DOXORUBICIN], the viability at 10 µM in assay [1] is 22.1%; in [5], 23.1%; in [6], 18.7%. In addition, the IC50 in assay [8] was determined as 0.33 µM; in assay [10], 0.45 µM.
Turning to `COc1ccc2c(c1)c(CC(=O)O)c(C)n2C(=O)c1ccc(Cl)cc1` [INDOMETHACIN], the inhibition in vivo at 50 mg/kg turned out to be 84% with Rattus norvegicus [2], 94% in the assay on Rattus norvegicus [3], 86% with Rattus norvegicus [4] and 81% in the assay on Rattus norvegicus [7].

As a reminder, the inhibition in vivo is how much of the control response was suppressed. Broadly, the IC50 is the concentration that inhibits the measured activity by half.
